Measurements as given in patent publication US20060282913A1, “Method of efficiently growing modified morning glory plant” (SKILL/VISION CO., LTD., priority 2003, published 2006).

Test system: immature embryos of modified morning glory "aosakaikaryuubaseisaisakibotan"
Assay: Embryoid body induction from cultured immature embryos with different phytohormones
Assay type: cell-based, Ipomoea nil
Conditions: immature embryos cultured as in Example 1A (MS medium, 60 g/l sucrose, 25° C., 2000 lux; NAA 3 mg/l), phytohormone varied
Method: Immature embryos were obtained from a parent tree of modified morning glory “aosakaikaryuubaseisaisakibotan”. Each individual immature embryo was separately cultured on an MS medium containing 3 mg/l of NAA and 60 g/l of sucrose at 25° C. under 2000 lux, to thereby obtain an embryoid body from the immature embryo. Each embryoid body obtained from different immature embryo was separately cultured as a discrete strain. Subculturing was repeated using the same medium at an interval of 4 weeks.
In substantially the same manner as in Example 1A, immature embryos were cultured except that phytohormone other than NAA, such as 4-fluorophenoxyacetic acid, 2,4-dichlorophenoxyacetic acid and picloram were used. As is apparent from a result shown in Table 4, in the case of phytohormone other than NAA, no embryoid bodies were produced, and thus mass proliferation was not attained.

| SMILES | Number of embryoid bodies formed per immature embryo |
| --- | --- |
| O=C(O)Cc1cccc2ccccc12 [NAA] | 10 |
| Nc1c(Cl)c(Cl)nc(C(=O)O)c1Cl [Picloram, picloram] | 0 |
| O=C(O)COc1ccc(F)cc1 [4-fluorophenoxyacetic acid] | 0 |
| O=C(O)COc1ccc(Cl)cc1Cl [2,4-dichlorophenoxyacetic acid] | 0 |
